pKd: −log10 of the molar value.

Series [1] can be described thus: Standard LD50 test, intraperitoneal, mice. The note with it: mouse, in vivo, ip. How it is done: The toxicity of a representative number of compounds of the present invention was determined by using the standard LD50 test.
The target of series [2] is T1, ADO-induced prolongation of the atrio-to-His bundle conduction time (Cavia porcellus, UniProt P47745).
T1 construct: isolated, perfused guinea-pig heart preparations; from tissue; host or cells: isolated, perfused guinea-pig heart
T1 sequence (P47745 1-326): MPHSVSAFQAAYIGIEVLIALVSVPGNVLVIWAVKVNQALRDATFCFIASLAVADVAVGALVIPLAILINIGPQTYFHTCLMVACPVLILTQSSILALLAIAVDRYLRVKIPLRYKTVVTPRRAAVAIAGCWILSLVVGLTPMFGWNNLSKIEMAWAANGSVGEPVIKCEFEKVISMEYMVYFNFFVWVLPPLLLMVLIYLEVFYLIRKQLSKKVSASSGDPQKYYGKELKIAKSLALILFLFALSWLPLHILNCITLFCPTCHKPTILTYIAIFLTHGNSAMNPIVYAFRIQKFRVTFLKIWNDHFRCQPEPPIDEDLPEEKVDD
Put plainly: Inhibition of ADO-induced prolongation of the atrio-to-His bundle conduction time in isolated, perfused guinea-pig heart. Conditions: five animals; 5 μm ADO infusion; Eadie-Scatchard plot of %INH; read-out: mean Kd(50). How it is done:
The ability of (E)-4-(1,2,3,6-tetrahydro-1,3-dimethyl-2,6-dioxo-9H-purin-8-yl)cinnamic acid to inhibit ADO-induced prolongation of the atrio-to-His bundle conduction time and, thus, its potential for the treatment of cardiac disorders including heart block, was evaluated in isolated, perfused guinea-pig heart preparations.
Male and female guinea-pigs were sacrificed by a blow to the head, and their hearts were quickly removed. The heart was then hung on a retro-grade aortic infusion apparatus. […]
Pacing was initiated at a rate that ensured one to one capture and later was set to 2-3 Hz. […] Two antagonists were evaluated per guinea-pig. […]
A.V. conduction times were measured from the HBE and LAE. […] Differences were then calculated by subtracting the control interval in question. Percentage ADO prolongation inhibition (%INH) was calculated by subtracting the A-A difference from the ADO difference, dividing by ADO difference, and multiplying by 100, thus %INH=(ADO diff.-ant. diff.)/ADO diff.*100.
The Kd(50) was then evaluated by an Fadie-Scatchard plot, where (%INH)/(antagonist conc.) was plotted on the ordinate and %INH on the abscissa. […]

The target of a further series is T2, purine receptors (Cavia porcellus, UniProt P47745).
T2 construct: Ilea were removed from sacrificed guinea pigs and placed in organ baths; from tissue; host or cells: guinea pig ileum
T2 sequence (P47745 1-326): T1 sequence (P47745 1-326)
Briefly: Purine receptor antagonism in guinea pig ileum twitch test (agonist 2-chloroadenosine, Schild regression). Conditions: for slope (Schild regression): value in brackets beside pA2, guinea pig ileum; for Kb: vs 2-chloroadenosine, Schild regression, may be considered the pKb, read-out: pA2 Guinea pig ileum (converted). How it is done: Accordingly, a representative number of compounds of the present invention were tested for their ability to antagonise the purine receptors using the guinea pig ileum test system.
Ilea were removed from sacrificed guinea pigs and placed in organ baths containing oxygenated Krebs-Henseleit buffer. After equilibration, the ilea were stimulated to contract (twitch contraction) using an electrical field-stimulus of 0.1 Hz, 0.05 ms duration and maximal voltage. Under these conditions, the twitch contraction results from the release of acetylcholine.
Concentration response curves to the purine agonist, 2-chloroadenosine, were determined first in the absence and then in the presence of multiple concentrations of the compounds of the invention. One concentration of each compound was used per tissue. Quantification of purine receptor antagonism was accomplished using the Schild regression technique, i.e. plots of log (dose-ratio-1) vs log compound concentration, and the pA2 determined by regression of the data points to the x-intercept, where log (dose-ratio-1) is zero.

`Cn1c(=O)c2nc(-c3ccc(/C=C/C(=O)O)cc3)[nH]c2n(C)c1=O` [Example 1, (E)-4-(1,2,3,6-tetrahydro-1,3,-dimethyl-2,6-dioxo-9H-purin-8-yl)cinnamic acid] came in with an LD50 in series [1] of more than 500 mg/kg. For the same compound, the pKd in series [2] was 6.72. Turning to `CCCn1c(=O)c2nc(-c3ccc(/C=C/C(=O)O)cc3)[nH]c2n(CCC)c1=O` [Example 6, (E)-4-(1,2,3,6-tetrahydro-2,6-dioxo-1,3-dipropyl-9H-purin-8-yl)cinnamic acid], the LD50 in series [1] is more than 500 mg/kg. Besides, on purine receptors, the “slope (Schild regression)” value is listed as 0.9 and the Kb is 0.02 µM. Take `CC(C)Cn1c(=O)[nH]c(=O)c2nc(-c3ccc(/C=C/C(=O)O)cc3)[nH]c21` [Example 10, (E)-4-(1,2,3,6-tetrahydro-3-isobutyl-2,6-dioxo-9H-purin-8-yl)cinnamic acid]: in series [1], the LD50 is more than 100 mg/kg. Consider `CCCn1c(=O)n(C)c(=O)c2nc(-c3ccc(/C=C/C(=O)O)cc3)[nH]c21` [Example 11, (E)-4-(1,2,3,6-tetrahydro-1-methyl-2,6-dioxo-3-propyl-9H-purin-8-yl)cinnamic acid], for which, on purine receptors, the “slope (Schild regression)” value turned out to be 1.0 and the Kb was 0.1 µM. `CC(C)Cn1c(=O)n(C)c(=O)c2nc(-c3ccc(/C=C/C(=O)O)cc3)[nH]c21` [Example 12, (E)-4-(1,2,3,6-tetrahydro-3-isobutyl-1-methyl-2,6-dioxo-9H-purin-8-yl)cinnamic acid] showed an LD50 in series [1] of more than 100 mg/kg. For the compound `CCCCn1c(=O)c2nc(-c3ccc(/C=C/C(=O)O)cc3)[nH]c2n(CCCC)c1=O` [Example 14, (E)-4-(1,3-dibutyl-1,2,3,6-tetrahydro-2,6-dioxo-9H-purin-8-yl)cinnamic acid], the LD50 in series [1] is more than 100 mg/kg. On purine receptors, the “slope (Schild regression)” value is 1.0 and the Kb is 0.0316 µM. On to `O=C(O)/C=C/c1ccc(-c2nc3c(=O)n(Cc4ccccc4)c(=O)n(Cc4ccccc4)c3[nH]2)cc1` [Example 15, (E)-4-(1,3-dibenzyl-1,2,3,6-tetrahydro-2,6-dioxo-9H-purin-8-yl)cinnamic acid], for which, at purine receptors, the “slope (Schild regression)” value was determined as 0.9 and the Kb was 0.0794 µM. In series [1], `CCCCn1c(=O)n(C)c(=O)c2nc(-c3ccc(/C=C/C(=O)O)cc3)[nH]c21` [Example 16, (E)-4-(3-butyl-1,2,3,6-tetrahydro-1-methyl-2,6-dioxo-9H-purin-8-yl)cinnamic acid] had an LD50 of more than 100 mg/kg. In series [1], `Cn1c(=O)c2nc(-c3ccc(/C=C/C(=O)O)cc3)[nH]c2n(Cc2ccccc2)c1=O` [Example 18, (E)-4-(3-benzyl-1,2,3,6-tetrahydro-1-methyl-2,6-dioxo-9H-purin-8-yl)cinnamic acid] came in with an LD50 of more than 100 mg/kg. At purine receptors, the “slope (Schild regression)” value was 0.9 and the Kb is 0.0794 µM.

As to `CC(C)Cn1c(=O)c2nc(-c3ccc(/C=C/C(=O)O)cc3)[nH]c2n(CC(C)C)c1=O` [Example 19, (E)-4-(1,2,3,6-tetrahydro-1,3-diisobutyl-2,6-dioxo-9H-purin-8-yl)cinnamic acid], at purine receptors, the “slope (Schild regression)” value turned out to be 1.0 and the Kb was 0.0355 µM. On to `Cn1c(=O)c2[nH]cnc2n(C)c1=O` [THEOPHYLLINE, 1,3-dimethylxanthine, reference compound], for which the “slope (Schild regression)” value on purine receptors was determined as 1.1.

One may read the LD50 as the dose at which mortality reaches 50%. By pKd is commonly meant −log10 of the Kd, conventionally taken in molar units.

Source of the values: patent US4879296A, “Xanthine derivatives” (Burroughs Wellcome co., priority 1985, dated 1989).
